Measured values from patent publication US20100285957A1, “THIAZOLYLOXYPHENYLAMIDINES OR THIADIAZOLYLOXYPHENYLAMIDINES AND THEIR USE AS FUNGICIDES” (Bayer CropScience AG, priority 2007, published 2010).
Where two headings read alike, the source gives them in different places.

Key:
[1] = log P determination (neutral / acidic, pH 2.3)
Pyrenophora teres = Pyrenophora teres test (barley)/protective; format: in vivo; conditions: 500 ppm active substance, protective, evaluation 7-9 days after inoculation, read-out: degree of effectiveness
Method: Pyrenophora teres Test (Barley)/Protective
(§1) To prepare a suitable active substance composition, 1 part by weight of active substance is mixed with the given amounts of solvent and emulsifier and the concentrate is diluted to the desired concentration using water.
For the testing of protective effectiveness, young barley plants are sprayed with the active substance composition in the application rate given. 1 day after the treatment, the plants are inoculated with an aqueous suspension of the spores of Pyrenophora teres and then remain at 100% relative humidity and 20° C. for 48 h. Subsequently, the plants are placed in a greenhouse at 80% relative humidity and a temperature of 20° C.
Evaluation is carried out 7-9 days after the inoculation. In this connection, 0% means a degree of effectiveness corresponding to that of the control, while a degree of effectiveness of 100% means that no infestation is observed.

Phakopsora pachyrhizi = test: Phakopsora test (soya)/protective; format: in vivo; conditions: 264 h, 100 ppm active substance, protective, evaluation 11 days after inoculation, read-out: degree of effectiveness
Method: Phakopsora Test (Soya)/Protective
as §1
(§2) For the testing of protective effectiveness, young plants are sprayed with the active substance composition in the application rate given. After the spray coating has been dried on, the plants are inoculated with an aqueous suspension of the spores of Phakopsora pachyrhizi and then remain in an incubation chamber at approximately 20° C. and 80% relative humidity for 1 day.
Evaluation is carried out 11 days after the inoculation. In this connection, 0% means a degree of effectiveness corresponding to that of the control, while a degree of effectiveness of 100% means that no infestation is observed.

Uromyces appendiculatus = test: Uromyces test (beans)/protective; format: in vivo; conditions: 240 h, 100 ppm active substance, protective, evaluation 10 days after inoculation, read-out: degree of effectiveness
Method: Uromyces Test (Beans)/Protective [table] To prepare a suitable active substance composition, 1 part by weight of active substance is mixed with the given amounts of solvents and emulsifier and the concentrate is diluted to the desired concentration using water. For the testing of protective effectiveness, young plants are sprayed with the active substance composition in the application rate given. After the spray coating has been dried on, the plants are inoculated with an aqueous suspension of the spores of the bean rust pathogen Uromyces appendiculatus and then remain in an incubation chamber at approximately 20° C. and 100% relative humidity for 1 day. The plants are then placed in a greenhouse at approximately 21° C. and a relative humidity of approximately 90%. Evaluation is carried out 10 days after the inoculation. In this connection, 0% means a degree of effectiveness corresponding to that of the control, while a degree of effectiveness of 100% means that no infestation is observed.

Alternaria solani = test: Alternaria test (tomato)/protective; format: in vivo; conditions: 168 h, 500 ppm active substance, protective, evaluation 7 days after inoculation, read-out: degree of effectiveness
Method: Alternaria Test (Tomato)/Protective [table] To prepare a suitable active substance composition, 1 part by weight of active substance is mixed with the given amounts of solvent and emulsifier and the concentrate is diluted to the desired concentration using water. For the testing of protective effectiveness, young tomato plants are sprayed with the active substance composition in the application rate given. 1 day after the treatment, the plants are inoculated with a suspension of the spores of Alternaria solani and then stand at 100% relative humidity and 20° C. for 24 h. Subsequently, the plants stand at 96% relative humidity and a temperature of 20° C. Evaluation is carried out 7 days after the inoculation. In this connection, 0% means a degree of effectiveness corresponding to that of the control, while a degree of effectiveness of 100% means that no infestation is observed.

Sphaerotheca fuliginea = test: Sphaerotheca test (cucumber)/protective; format: in vivo; conditions: Podosphaera fuliginea, 168 h, 100 ppm active substance, protective, evaluation 7 days after inoculation, read-out: degree of effectiveness
Method: Sphaerotheca Test (Cucumber)/Protective [table] To prepare a suitable active substance composition, 1 part by weight of active substance is mixed with the given amounts of solvents and emulsifier and the concentrate is diluted to the desired concentration using water. For the testing of protective effectiveness, young plants are sprayed with the active substance composition in the application rate given. After the spray coating has been dried on, the plants are inoculated with an aqueous suspension of spores of Sphaerotheca fuliginea. The plants are then placed in a greenhouse at approximately 23° C. and a relative humidity of approximately 70%. Evaluation is carried out 7 days after the inoculation. In this connection, 0% means a degree of effectiveness corresponding to that of the control, while a degree of effectiveness of 100% means that no infestation is observed.

[2] = tested on: Puccinia recondita var. tritici; test: Puccinia test (wheat)/protective; format: in vivo; conditions: 240 h, 1000 ppm active substance, protective, evaluation 10 days after inoculation, read-out: degree of effectiveness
Method: Puccinia Test (Wheat)/Protective
as §1
For the testing of protective effectiveness, young plants are sprayed with the active substance composition in the application rate given. After the spray coating has been dried on, the plants are sprayed with a suspension of the conidia of Puccinia recondita var. tritici. The plants remain in an incubation chamber at 20° C. and 100% relative humidity for 48 hours.
The plants are then placed in a greenhouse at a temperature of approximately 20° C. and a relative humidity of 80%, in order to encourage the development of rust pustules.
Evaluation is carried out 10 days after the inoculation. In this connection, 0% means a degree of effectiveness corresponding to that of the control, while a degree of effectiveness of 100% means that no infestation is observed.

[3] = tested on: Blumeria graminis f.sp. hordei; test: Blumeria graminis test (barley)/protective; format: in vivo; conditions: 168 h, 1000 ppm active substance, protective, evaluation 7 days after inoculation, read-out: degree of effectiveness
Method: Blumeria graminis Test (Barley)/Protective
as §1
For the testing of protective effectiveness, young plants are sprayed with the active substance composition in the application rate given.
After the spray coating has been dried on, the plants are dusted with spores of Blumeria graminis f.sp. hordei.
The plants are placed in a greenhouse at a temperature of approximately 20° C. and a relative humidity of approximately 80%, in order to encourage the development of mildew pustules.
Evaluation is carried out 7 days after the inoculation. In this connection, 0% means a degree of effectiveness corresponding to that of the control, while a degree of effectiveness of 100% means that no infestation is observed.

Cochliobolus miyabeanus = test: Cochliobolus test (rice)/protective; format: in vivo; conditions: 250 ppm active substance, protective, evaluation 4 days after inoculation
Method: Cochliobolus Test (Rice)/Protective
as §1
as §2, with “Cochliobolus miyabeanus” for “Phakopsora pachyrhizi”, “25°” for “20°”, “100%” for “80%”
Evaluation is carried out 4 days after the inoculation. In this connection, 0% means a degree of effectiveness corresponding to that of the control, while a degree of effectiveness of 100% means that no infestation is observed.

| Compound | log P acidic [1] | pest or weed control at 500 ppm (Pyrenophora teres) [%] | pest or weed control at 100 ppm (Phakopsora pachyrhizi) [%] | pest or weed control at 100 ppm (Uromyces appendiculatus) [%] | pest or weed control at 500 ppm (Alternaria solani) [%] | pest or weed control at 100 ppm (Sphaerotheca fuliginea) [%] | pest or weed control at 1000 ppm [2] [%] | pest or weed control at 1000 ppm [3] [%] | logP (physchem; pH 2.3) | other results |
| --- | --- | --- | --- | --- | --- | --- | --- | --- | --- | --- |
| Cc1cc(Oc2nc(C3CC3)ns2)c(C)cc1/N=C/N1CCCCC1 [Compound 3, 4-[(3-Cyclopropyl-1,2,4-thiadiazol-5-yl)oxy]-2,5-dimethyl-N-[(1E)-piperidin-1-ylmethyl-idene]aniline] | 1.75 | – | – | – | – | – | – | – | – | – |
| Cc1cc(Oc2nc(C3CC3)ns2)c(C)cc1/N=C/N1CCSCC1 [Compound 4, 4-[(3-Cyclopropyl-1,2,4-thiadiazol-5-yl)oxy]-2,5-dimethyl-N-[(1E)-thiomorpholin-4-ylmethyl-idene]aniline] | 1.73 | – | – | – | – | – | – | – | – | – |
| Cc1cc(Oc2nc(C3(Cl)CC3)cs2)c(C)cc1/N=C/N1CCCCC1 [Compound 6, 4-{[4-(1-Chlorocyclopropyl)-1,3-thiazol-2-yl]oxy}-2,5-dimethyl-N-[(1E)-piperidin-1-ylmethyl-idene]aniline] | – | – | – | – | – | – | – | – | – | log P neutral ([1]; neutral): 5.49 |
| CCN(C)C=Nc1cc(C)c(Oc2nc(C3(C)CC3)ns2)cc1C [Compound 9, N′-(2,5-Dimethyl-4-{[3-(1-methylcyclopropyl)-1,2,4-thiadiazol-5-yl]oxy}phenyl)-N-ethyl-N-methylimidoformamide] | – | ≥ 70 | ≥ 80 | ≥ 70 | ≥ 70 | ≥ 70 | ≥ 70 | ≥ 70 | 1.94 | – |
| Cc1cc(Oc2nc(C3(C)CC3)ns2)c(C)cc1/N=C/N1CCCCC1 [Compound 11, 5-Dimethyl-4-{[3-(1-methylcyclopropyl)-1,2,4-thiadiazol-5-yl]oxy}-N-[(1E)-piperidin-1-yl-methylidene]aniline] | 2.13 | – | – | – | – | – | – | – | – | – |
| CCN(C)C=Nc1cc(C)c(Oc2nc(C3CC3C)ns2)cc1C (stereo not shown) [Compound 14, N′-(2,5-Dimethyl-4-{[3-(2-methylcyclopropyl)-1,2,4-thiadiazol-5-yl]oxy}phenyl)-N-ethyl-N-methylimidoformamide] | – | ≥ 70 | ≥ 80 | ≥ 70 | ≥ 70 | ≥ 70 | ≥ 70 | ≥ 70 | 1.96 | – |
| Cc1cc(Oc2nc(C3CC3C)ns2)c(C)cc1N=CN(C)C(C)C (stereo not shown) [Compound 15, N′-(2,5-Dimethyl-4-{[3-(2-methylcyclopropyl)-1,2,4-thiadiazol-5-yl]oxy}phenyl)-N-methyl-N-(1-methylethyl)imidoformamide] | – | ≥ 70 | ≥ 80 | ≥ 70 | ≥ 70 | ≥ 70 | ≥ 70 | ≥ 70 | 1.74 | – |
| CCN(C)C=Nc1cc(C)c(Oc2nc(C3(C)CC3)c(Cl)s2)cc1C [Compound 21, N′-(4-{[5-Chloro-4-(1-methylcyclopropyl)-1,3-thiazol-2-yl]oxy}-2,5-dimethylphenyl)-N-ethyl-N-methylimidoformamide] | – | ≥ 70 | ≥ 80 | ≥ 70 | ≥ 70 | ≥ 70 | ≥ 70 | ≥ 70 | 1.97 | logP (physchem): 6 |
| Cc1cc(Oc2nc(C3(C)CC3)cs2)c(C)cc1/N=C/N1CCCCC1 [Compound 23, 2,5-Dimethyl-4-{[4-(1-methylcyclopropyl)-1,3-thiazol-2-yl]oxy}-N-[(1E)-piperidin-1-ylmethyl-idene]aniline] | 2.05 | – | – | – | – | – | – | – | – | – |
| CCN(C)C=Nc1cc(C)c(Oc2nc(C3(C)CC3(Cl)Cl)ns2)cc1C (stereo not shown) [Compound 25, N′-(4-{[3-(2,2-Dichloro-1-methylcyclopropyl)-1,2,4-thiadiazol-5-yl]oxy}-2,5-dimethylphenyl)-N-ethyl-N-methylimidoformamide] | – | ≥ 70 | ≥ 80 | ≥ 70 | ≥ 70 | ≥ 70 | – | – | 2.03 | degree of effectiveness (Cochliobolus miyabeanus): ≥ 80% |
| [5-Chloro-4-(1-methylcyclopropyl)-1,3-thiazol-2-yl]oxy-2,5-dimethylaniline | – | – | – | – | – | – | – | – | – | log P (pH 2.3): 4.13 |
